This note sets out measurements from patent publication US10077261B2, “Imidazolin-5-one derivative useful as FASN inhibitors for the treatment of cancer” (Janssen Pharmaceutica NV, priority 2012, dated 2018).

Test [1] has as its target T1, hFASN enzyme (full length) (Homo sapiens, UniProt P49327).
T1 construct: 10 μL hFASN enzyme (full length, 300 ng, purified in house); made in house
In words: Fatty Acid Synthase (FASN) inhibition scintillation proximity assay. It is filed as biochemical. Particulars: for inhibition at 10 µM: read-out: Human FASN % inhibition @ 10 μM, 10 μM test compound; for IC50: read-out: Human FASN pIC50 (converted). The method in brief:
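Read-out relies on hydrophobic ³H-palmitate product, formed from ³H-acetyl-CoA and malonyl-CoA, binding streptavidin imaging beads, measured at 610±20 nm after at least 24 h. Full-length enzyme (300 ng) in phosphate buffer pH 7.5 with DTT; eight compound concentrations, 0.01–30 μM.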
(Scintillation proximity formats need no separation of bound from free tracer.)

The subject of test [2] is A2780 ovarian cells. As to the kind of experiment: A2780 ovarian cell proliferation assay in lipid reduced medium, with palmitate (MTT). The test is classed as cell-based. The note with it: Homo sapiens, A2780, 96 h; read-out: pIC50 A2780 Ovarian Cell, With Palmitate (converted). The method in brief:
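In this palmitate-supplemented format, compound dilutions (30 μM down to 0.01 μM) are added to cells in lipid-reduced serum with 25 μM palmitate, 0.2% fatty-acid-free BSA and 0.25% ethanol. After four days (96 h) MTT absorbance at 544 nm is recorded and fitted by minimum sum of squares.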

For test [3], the system named is A2780 ovarian cells. As to the kind of experiment: A2780 ovarian cell proliferation assay in lipid reduced medium, without palmitate (MTT). The note with it: Homo sapiens, A2780, 96 h; read-out: pIC50 A2780 Ovarian Cell, Without Palmitate (converted). The test is classed as cell-based.

T1 sequence (P49327 whole entry): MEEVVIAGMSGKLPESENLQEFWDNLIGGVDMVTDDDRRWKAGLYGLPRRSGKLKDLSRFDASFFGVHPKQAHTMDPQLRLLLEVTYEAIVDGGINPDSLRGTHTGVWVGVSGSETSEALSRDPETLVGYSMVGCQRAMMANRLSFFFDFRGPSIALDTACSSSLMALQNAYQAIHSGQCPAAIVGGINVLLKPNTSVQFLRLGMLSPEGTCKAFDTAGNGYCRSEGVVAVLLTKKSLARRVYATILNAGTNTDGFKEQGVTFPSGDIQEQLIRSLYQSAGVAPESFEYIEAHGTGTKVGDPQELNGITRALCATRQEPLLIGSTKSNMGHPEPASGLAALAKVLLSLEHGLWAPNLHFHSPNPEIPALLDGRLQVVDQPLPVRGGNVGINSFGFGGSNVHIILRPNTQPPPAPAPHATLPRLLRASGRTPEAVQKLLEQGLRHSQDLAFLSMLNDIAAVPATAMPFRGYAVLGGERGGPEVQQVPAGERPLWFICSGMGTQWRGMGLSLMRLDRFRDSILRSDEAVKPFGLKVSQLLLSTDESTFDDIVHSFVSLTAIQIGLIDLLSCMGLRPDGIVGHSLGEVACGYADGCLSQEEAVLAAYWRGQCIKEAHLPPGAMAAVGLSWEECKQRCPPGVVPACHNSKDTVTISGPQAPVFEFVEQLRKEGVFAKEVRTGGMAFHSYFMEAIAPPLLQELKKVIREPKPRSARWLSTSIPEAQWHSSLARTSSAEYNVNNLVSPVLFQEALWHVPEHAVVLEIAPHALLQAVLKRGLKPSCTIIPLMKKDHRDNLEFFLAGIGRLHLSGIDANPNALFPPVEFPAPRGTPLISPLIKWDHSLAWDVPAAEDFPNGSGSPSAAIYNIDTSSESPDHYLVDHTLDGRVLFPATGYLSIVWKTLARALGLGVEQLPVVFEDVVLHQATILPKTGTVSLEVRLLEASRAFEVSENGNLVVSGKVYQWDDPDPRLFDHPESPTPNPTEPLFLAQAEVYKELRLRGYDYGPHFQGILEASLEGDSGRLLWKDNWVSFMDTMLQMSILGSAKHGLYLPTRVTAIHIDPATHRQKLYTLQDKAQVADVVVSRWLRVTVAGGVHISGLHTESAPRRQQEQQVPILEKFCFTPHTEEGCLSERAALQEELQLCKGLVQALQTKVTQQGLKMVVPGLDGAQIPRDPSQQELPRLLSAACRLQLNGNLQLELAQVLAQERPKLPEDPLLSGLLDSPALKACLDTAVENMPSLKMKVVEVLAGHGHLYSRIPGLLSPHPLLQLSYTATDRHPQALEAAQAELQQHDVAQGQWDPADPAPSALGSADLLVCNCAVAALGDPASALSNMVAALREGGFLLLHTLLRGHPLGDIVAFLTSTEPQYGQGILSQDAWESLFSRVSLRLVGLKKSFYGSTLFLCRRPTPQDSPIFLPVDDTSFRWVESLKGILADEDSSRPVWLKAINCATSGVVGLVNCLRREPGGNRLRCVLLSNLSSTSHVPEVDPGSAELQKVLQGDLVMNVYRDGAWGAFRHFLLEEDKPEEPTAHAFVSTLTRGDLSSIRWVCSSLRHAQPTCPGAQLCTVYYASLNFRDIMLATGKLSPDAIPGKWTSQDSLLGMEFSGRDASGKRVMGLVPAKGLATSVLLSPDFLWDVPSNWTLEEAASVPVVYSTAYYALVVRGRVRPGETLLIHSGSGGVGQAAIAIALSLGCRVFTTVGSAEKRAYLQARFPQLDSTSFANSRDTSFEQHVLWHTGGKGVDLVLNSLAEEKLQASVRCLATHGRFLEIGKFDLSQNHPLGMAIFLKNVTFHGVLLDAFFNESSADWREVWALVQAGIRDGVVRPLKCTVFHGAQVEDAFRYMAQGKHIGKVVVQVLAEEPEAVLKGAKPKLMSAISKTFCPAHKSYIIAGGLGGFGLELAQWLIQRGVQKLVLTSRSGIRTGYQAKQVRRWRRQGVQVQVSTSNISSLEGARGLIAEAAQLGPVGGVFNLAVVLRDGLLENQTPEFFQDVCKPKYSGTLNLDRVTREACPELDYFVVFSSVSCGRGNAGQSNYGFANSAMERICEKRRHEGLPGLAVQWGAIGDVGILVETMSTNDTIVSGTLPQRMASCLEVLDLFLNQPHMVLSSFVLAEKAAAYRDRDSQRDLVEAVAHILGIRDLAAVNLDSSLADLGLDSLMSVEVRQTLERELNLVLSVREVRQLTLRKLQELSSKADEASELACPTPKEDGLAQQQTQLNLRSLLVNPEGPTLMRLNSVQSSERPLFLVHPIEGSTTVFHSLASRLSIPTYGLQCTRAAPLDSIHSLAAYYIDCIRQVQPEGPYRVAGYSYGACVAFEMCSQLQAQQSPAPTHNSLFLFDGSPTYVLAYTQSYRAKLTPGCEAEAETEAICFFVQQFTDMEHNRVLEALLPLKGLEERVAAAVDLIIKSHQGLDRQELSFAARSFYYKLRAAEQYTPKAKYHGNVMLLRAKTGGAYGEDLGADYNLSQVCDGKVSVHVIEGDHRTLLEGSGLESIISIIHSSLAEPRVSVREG

What is called inhibition is the drop in the measured response relative to a control, in per cent. Consider `Cc1cc(-c2ccc(C3=NC4(CC4)C(=O)N3CC3CN(C(=O)C4CC4)C3)cc2)nc2cc(Br)ccc12` [compound 791, 5-(4-(7-bromo-4-methylquinolin-2-yl)phenyl)-6-((1-(cyclopropanecarbonyl)azetidin-3-yl)methyl)4,6-diazaspiro[2.4]hept-4-en-7-one], for which, in test [1], the inhibition at 10 µM is -2%. For the same molecule, the IC50 in test [1] was more than 10 µM; with A2780 ovarian cells [2] it was more than 6.17 µM; with A2780 ovarian cells [3] it was more than 6.17 µM.

As to `Cn1ncc2nc(-c3ccc(C4=NC5(CC5)C(=O)N4CC4CN(C(=O)C5CC5)C4)cc3)ccc21` [compound 792, 6-((1-(cyclopropanecarbonyl)azetidin-3-yl)methyl)-5-(4-(1-methyl-1H-pyrazolo[4,3-b]pyridin-5-yl)phenyl)-4,6-diazaspiro[2.4]hept-4-en-7-one], the inhibition at 10 µM in test [1] was found to be 38%. Further, the IC50 (in test [1]; in the test on A2780 ovarian cells [2]; in the test on A2780 ovarian cells [3]) was more than 10 µM each time.

Take `Cc1nnc2ccc(-c3ccc(C4=NC5(CC5)C(=O)N4CC4CN(C(=O)C5CC5)C4)cc3)cn12` [compound 793, 6-((1-(cyclopropanecarbonyl)azetidin-3-yl)methyl)-5-(4-(3-methyl-[1,2,4]triazolo[4,3-a]pyridin-6-yl)phenyl)-4,6-diazaspiro[2.4]hept-4-en-7-one]: the inhibition at 10 µM in test [1] turned out to be 13%. For the same molecule, the IC50 (in test [1]; in the test with A2780 ovarian cells [2]; with A2780 ovarian cells [3]) was more than 10 µM throughout.

Take `CC(C)(O)c1ccc(-c2ccc(C3=NC4(CC4)C(=O)N3CC3CN(C(=O)C4CC4)C3)cc2)nc1` [compound 794, 6-((1-(cyclopropanecarbonyl)azetidin-3-yl)methyl)-5-(4-(5-(2-hydroxypropan-2-yl)pyridin-2-yl)phenyl)-4,6-diazaspiro[2.4]hept-4-en-7-one]: in test [1], the inhibition at 10 µM is -15%. The IC50 (in test [1]; in the test with A2780 ovarian cells [2]; in the test on A2780 ovarian cells [3]) was more than 10 µM in each case.

Regarding `CCCc1ccc(-c2ccc(C3=NC4(CC4)C(=O)N3CC3CN(C(=O)C4CC4)C3)cc2)cn1` [compound 795, 6-((1-(cyclopropanecarbonyl)azetidin-3-yl)methyl)-5-(4-(6-propylpyridin-3-yl)phenyl)-4,6-diazaspiro[2.4]hept-4-en-7-one], the inhibition at 10 µM in test [1] was 34%. In addition, the IC50 (in test [1]; in the test with A2780 ovarian cells [2]; in the test on A2780 ovarian cells [3]) was more than 10 µM each time.

As to `COC(=O)N1CC2(C1)N=C(c1ccc(-c3ccc(-c4cnn(C)c4)cc3)cc1)N(C[C@@H]1CCN(S(C)(=O)=O)C1)C2=O` [compound 891, (S)-methyl 6-(4′-(1-methyl-1H-pyrazol-4-yl)-[1,1′-biphenyl]-4-yl)-7-((1-(methylsulfonyl)pyrrolidin-3-yl)methyl)-8-oxo-2,5,7-triazaspiro]3.4[ovt-5-ene-2-carboxylate], the inhibition at 10 µM in test [1] came to 8%. The IC50 (in test [1]; with A2780 ovarian cells [2]; with A2780 ovarian cells [3]) was more than 10 µM each time.

As for `CS(=O)(=O)N1CCC(CN2C(=O)C3(CCOC3)N=C2c2ccc(-c3ccc4cccnc4c3)cc2)C1` (stereo not shown) [compound 896, 3-((1-(methylsulfonyl)pyrrolidin-3-yl)methyl)-2-(4-(quinolin-7-yl)phenyl)-7-oxa-1,3-diazaspiro[4.4]non-1-en-4-one], the inhibition at 10 µM in test [1] was found to be 10%. The IC50 (in test [1]; with A2780 ovarian cells [2]; in the test with A2780 ovarian cells [3]) was more than 10 µM throughout.

Take `O=C(N1CC(CN2C(=O)C3(CCOC3)N=C2c2ccc(-c3ccc4occc4c3)cc2)C1)C(F)(F)F` (stereo not shown) [compound 897, 2-(4-(benzofuran-5-yl)phenyl)-3-((1-(2,2,2-trifluoroacetyl)azetidin-3-yl)methyl)-7-oxa-1,3-diazaspiro[4.4]non-1-en-4-one]: the inhibition at 10 µM in test [1] was determined as 15%. Moreover, the IC50 (in test [1]; with A2780 ovarian cells [2]; in the test on A2780 ovarian cells [3]) was more than 10 µM in each case.

As to `CS(=O)(=O)N1CC(CN2C(=O)C3(CCOC3)N=C2c2ccc(-c3ccc4occc4c3)cc2)C1` (stereo not shown) [compound 898, 2-(4-(benzofuran-5-yl)phenyl)-3-((1-(methylsulfonyl)azetidin-3-yl)methyl)-7-oxa-1,3-diazaspiro[4.4]non-1-en-4-one], in test [1], the inhibition at 10 µM was determined as 6%. Besides, the IC50 (in test [1]; in the test on A2780 ovarian cells [2]; in the test on A2780 ovarian cells [3]) was more than 10 µM throughout.

Turning to `Cn1cc(-c2ccc(-c3ccc(C4=NC5(CCOC5)C(=O)N4CC4CN(C(=O)C(F)(F)F)C4)cc3)cc2)cn1` (stereo not shown) [compound 899, 2-(4′-(1-methyl-1H-pyrazol-4-yl)-[1,1′-biphenyl]-4-yl)-3-((1-(2,2,2-trifluoroacetyl)azetidin-3-yl)methyl)-7-oxa-1,3-diazaspiro[4.4]non-1-en-4-one], the inhibition at 10 µM in test [1] was -10%. In addition, the IC50 (in test [1]; with A2780 ovarian cells [2]; in the test with A2780 ovarian cells [3]) was more than 10 µM each time.

For `COC(=O)N1CC2(C1)N=C(c1ccc(-c3ccc4cccnc4c3)cc1)N(C[C@@H]1CCN(S(C)(=O)=O)C1)C2=O` [compound 900, (S)-methyl 7-((1-(methylsulfionyl)pyrrolidin-3-yl)methyl)-8-oxo-6-(4-(quinolin-7-yl)phenyl)-2,5,7-triazaspiro[3.4]oct-5-ene-2-carboxylate], the inhibition at 10 µM in test [1] was 9%. Further, the IC50 (in test [1]; in the test with A2780 ovarian cells [2]; with A2780 ovarian cells [3]) was more than 10 µM in each case.

With `Cn1cc(-c2ccc(-c3ccc(C4=NC5(CCOCC5)C(=O)N4C[C@@H]4CCN(S(C)(=O)=O)C4)cc3)cc2)cn1` [compound 918, (S)-2-(4′-(1-metrhyl-1H-pyrazol-4-yl)-[1,1′-biphenyl]-4-yl)-3-((1-(methylsulfonyl)pyrrolidin-3-yl)methyl)-8-oxa-1,3-diazaspiro[4.5]dec-1-en-4-one], in test [1], the inhibition at 10 µM came out at 2%. The IC50 (in test [1]; in the test with A2780 ovarian cells [2]; in the test on A2780 ovarian cells [3]) was more than 10 µM throughout.

On to `COC(=O)N1CC(CN2C(=O)C3(CCOCC3)N=C2c2ccc(-c3ccc4cccnc4c3)cc2)C1` [compound 922, methyl 3-((4-oxo-2-(4-(quinolin-7-yl)phenyl)-8-oxa-1,3-diazaspiro[4.5]dec-1-en-3-yl)methyl)azetidine-1-carboxylate], for which the inhibition at 10 µM in test [1] was 38%. Further, the IC50 (in test [1]; in the test on A2780 ovarian cells [2]; with A2780 ovarian cells [3]) was more than 10 µM throughout.

`COC(=O)N1CC2(C1)N=C(c1ccc(-c3ccc4c(cnn4C)c3)cc1)N(C[C@@H]1CCN(C(=O)c3nccs3)C1)C2=O` [compound 923, (R)-methyl 6-(4-(1-methyl-1H-indazol-5-yl)phenyl)-8-oxo-7-((1-(thiazole-2-carbonyl)pyrrolidin-3-yl)methyl)-2,5,7-triazaspiro[3.4]oct-5-ene-2-carboxylate]: the inhibition at 10 µM in test [1] came to 27%. Moreover, the IC50 (in test [1]; with A2780 ovarian cells [2]; with A2780 ovarian cells [3]) was more than 10 µM each time.

On to `Cn1ncc2cc(-c3ccc(C4=NC5(CCOC5)C(=O)N4CC4CN(C(=O)C(F)(F)F)C4)cc3)ccc21` (stereo not shown) [compound 937, 2-(4-(1-methyl-1H-indazol-5-yl)phenyl)-3-((1-(2,2,2-trifluoroacetyl)azetidin-3-yl)methyl)-7-oxa-1,3-diazaspiro[4.4]non-1-en-4-one], for which the inhibition at 10 µM in test [1] is -9%. For the same molecule, the IC50 (in test [1]; in the test on A2780 ovarian cells [2]; in the test on A2780 ovarian cells [3]) was more than 10 µM in each case.

With `O=C(N1CCC(CN2C(=O)C3(CCOC3)N=C2c2ccc(-c3ccc4occc4c3)cc2)C1)C(F)(F)F` (stereo not shown) [compound 938, 2-(4-(benzofuran-5-yl)phenyl)-3-((1-(2,2,2-trifluoroacetyl)pyrrolidin-3-yl)methyl)-7-oxa-1,3-diazaspiro[4.4]non-1-en-4-one], in test [1], the inhibition at 10 µM came to 43%. For the same molecule, the IC50 is more than 10 µM in test [1], more than 10 µM in the test on A2780 ovarian cells [2] and 7.94 µM in the test on A2780 ovarian cells [3].

In the case of `Cn1cc(-c2ccc(-c3ccc(C4=NC5(CCOC5)C(=O)N4CC4CCN(S(C)(=O)=O)C4)cc3)cc2)cn1` (stereo not shown) [compound 939, 2-(4′-(1-methyl-1H-pyrazol-4-yl)-[1,1′-biphenyl]-4-yl)-3-((1-(methylsulfonyl)pyrrolidin-3-yl)methyl)-7-oxa-1,3-diazaspiro[4.4]non-1-en-4-one], the inhibition at 10 µM in test [1] amounted to 2%. Moreover, the IC50 (in test [1]; in the test on A2780 ovarian cells [2]; with A2780 ovarian cells [3]) was more than 10 µM each time.

As to `Cn1cc(-c2ccc(-c3ccc(C4=NC5(CCOC5)C(=O)N4CC4CCN(C(=O)C(F)(F)F)C4)cc3)cc2)cn1` (stereo not shown) [compound 940, 2-(4′-(1-methyl-1H-pyrazol-4-yl)-[1,1′-biphenyl]-4-yl)-3-((1-(2,2,2-trifluoroacetyl)pyrrolidin-3-yl)methyl)-7-oxa-1,3-diazaspiro[4.4]non-1-en-4-one], the inhibition at 10 µM in test [1] is 33%. The IC50 (in test [1]; with A2780 ovarian cells [2]; with A2780 ovarian cells [3]) was more than 10 µM each time.

Turning to `Cn1cc(-c2ccc(-c3ccc(C4=NC5(CCOC5)C(=O)N4CC4CCN(C(=O)c5nccs5)C4)cc3)cc2)cn1` (stereo not shown) [compound 943, 2-(4′-(1-methyl-1H-pyrazol-4-yl)-[1,1′-biphenyl]-4-yl)-3-((1-(thiazole-2-carbonyl)pyrrolidin-3-yl)methyl)-7-oxa-1,3-diazaspiro[4.4]non-1-en-4-one], the inhibition at 10 µM in test [1] came to 9%. Besides, the IC50 (in test [1]; in the test with A2780 ovarian cells [2]; in the test with A2780 ovarian cells [3]) was more than 10 µM each time.
